Results: patent US12004506B2, “Pharmaceutical composition comprising a cyclic peptide of formula X1-[sequence]-X2 and use for extracorporeal lung treatment” (priority 2013, dated 2024)

Columns and labels:
[1] = system: sodium ion current in A549 cells (deglycosylated cell surface); assay: Patch clamp assay, whole cell mode, on A549 cells deglycosylated with PNGase F; format: cell-based, human; conditions: 240 nM peptide, Eh -100 mV, A549
Experimental: In whole cell mode experiments as described above, A549 cells were incubated with “PNGase enzyme F” (Peptide-N^4-(N-acetyl-β-D-glucosaminyl)asparagine amidase F) 100 units for 1-5 minutes immediately prior to the patch clamp measurements and glass cover slips with the cultured cells were rinsed with external solution before being transferred to the chamber of the 1 mL bath.
The results of the deglycosylation experiments using the patch clamp assay in whole cell mode are presented in Table IV, wherein the effect of deglycosylation of A549 cells on activation of sodium ion current by peptides of SEQ ID NO:1 to SEQ ID NO:7 is indicated. Whole cell currents were recorded at Eh=−100 mV.

[2] = system: non-ischemic pig donor lung; assay: Ex vivo lung perfusion (EVLP) of non-ischemic pig donor lungs, inhalative application; conditions: inhalative application, 1 mg/kg, hourly T1 to T4, vs WFI control
Experimental: Brain death pigs were turned into dorsal position, and a longitudinal sternotomy was performed. The pericardium and both pleural cavities were opened. […] An inflow catheter was placed in the pulmonary artery through a purse-string on the right ventricular outflow tract.
The lungs (non-ischemic) were then preserved with an ante grade flush of cold isotonic preservation solution (50 ml per kg body weigh of pig, containing potassium ions, sodium ions, magnesium ions, calcium ions, chloride ions, dextran, glucose, buffering ions) through the inflow catheter. Incision of the left auricular appendix provides outflow. The lungs were ventilated during this period with 50% oxygen, and iced slush were placed in both pleural cavities and mediastinum.
The explanation technique was en bloc harvesting with heart and esophagus according to the following steps: • a) Dissection of soft tissue bridges to the thoracic cavity on both sides of the trachea. • b) Transsection of both pulmonal ligaments (very deep, difficult exposure), then of the VCI, the lower thoracic descendent aorta and the esophagus, respectively. • c) Blunt separation from remaining mediastinal adhesions. • d) Complete inflation of the donor lung prior of tracheal closure with a stapler.
After explantation, the lungs were wrapped in gauze, placed in an insulated ice bag filled with low-potassium dextran extracellular solution, and stored at 4° C. for 18 to 24 hours. A temperature probe was submerged in the container, which will be placed in a refrigerator.
For ex-vivo lung conditioning, the EVLP technique ([…]) was used. In the EVLP technique, donor lungs are placed into a circuit composed of a pump, ventilator and filters. EVLP technique, the temperature may increased up to 37 °C. In the EVLP, a ventilator is used to deliver oxygen to the lungs. The pump is used to perfuse the lungs with an extracellular solution containing human albumin and nutrition. During EVLP, the lung function can be evaluated regularly on key indicators. […]

C[C@@H]1NC(=O)CNC(=O)[C@H](CCC(=O)O)NC(=O)[C@@H]2CCCN2C(=O)[C@H]([C@@H](C)O)NC(=O)[C@H](CCC(=O)O)NC(=O)[C@H](CCCNC(=N)N)NC(=O)[C@H](CCC(N)=O)NC(=O)CNC(=O)[C@@H](N)CSSC[C@@H](C(=O)O)NC(=O)[C@H](Cc2ccc(O)cc2)NC(=O)[C@H](Cc2c[nH]c3ccccc23)NC(=O)[C@@H]2CCCN2C(=O)[C@H](CCCCN)NC(=O)[C@H](C)NC(=O)[C@H](CCC(=O)O)NC1=O [SEQ ID NO: 1]
Whole cell current, pre-treatment with PNGase F [1]: 19.6 pA (n = 3) | dynamic lung compliance ([2]; FIG. 2A): improved | arterio-venous pO2 difference ΔpO2 ([2]; FIG. 2B): improved
